Experimental data as given in patent US9346761B2, “Arginine methyltransferase inhibitors and uses thereof” (Epizyme, Inc., priority 2013, dated 2016).
Structures can show the parent of a compound that is named as a salt.

Key:
[1] = target: T1, Full-length human PRMT1 isoform 1 (Homo sapiens, UniProt Q99873); assay: PRMT1 biochemical assay (3H-SAM Flashplate, peptide substrate)
T1 construct: GST-tagged PRMT1; made in house; host or cells: High Five insect cells (baculovirus, pFastBacI)
How it was run: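 GST-tagged full-length PRMT1 from baculovirus-infected cells, preincubated 30 min at room temperature with compound in 20 mM Bicine pH 7.6, TCEP, BSG, Tween 20. Reaction started with 3H-SAM plus biotinylated peptide, stopped with 300 uM unlabelled SAM. Streptavidin Flashplate capture and scintillation counting; % inhibition curve-fitted for IC50.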

[2] = target: T2, Full-length human PRMT6 (Homo sapiens, UniProt Q96LA8); assay: PRMT6 biochemical assay (3H-SAM Flashplate, peptide substrate)
T2 construct: Flag-PRMT6-His was eluted with 200 ug/ml FLAG peptide in the same buffer; made in house; host or cells: HEK 293F cells (BacMam virus, pFastBacMam)
T2 sequence (Q96LA8 with tags, fused parts or gaps): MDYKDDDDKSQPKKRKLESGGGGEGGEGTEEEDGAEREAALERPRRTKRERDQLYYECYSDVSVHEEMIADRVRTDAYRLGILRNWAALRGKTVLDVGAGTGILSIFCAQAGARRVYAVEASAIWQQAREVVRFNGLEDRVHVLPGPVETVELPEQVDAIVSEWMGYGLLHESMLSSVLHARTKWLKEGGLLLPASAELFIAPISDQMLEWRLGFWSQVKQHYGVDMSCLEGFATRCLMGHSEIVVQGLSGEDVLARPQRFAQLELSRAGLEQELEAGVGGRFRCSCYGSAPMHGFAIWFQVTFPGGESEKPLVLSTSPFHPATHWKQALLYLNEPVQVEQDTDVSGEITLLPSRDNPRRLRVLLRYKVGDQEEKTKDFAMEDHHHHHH
How it was run: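 Flag-PRMT6-His from baculovirus-infected cells, preincubated with compound 30 min at room temperature, then SAM/3H-SAM and biotinylated H4 36-50 peptide added; 20 mM Bicine pH 7.6, TCEP, BSG, Tween 20. Quenched with cold SAM, captured on streptavidin Flashplates; % inhibition from SAH/DMSO controls, 3- or 4-parameter IC50 fit.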

T1 sequence (Q99873 with tags, fused parts or gaps): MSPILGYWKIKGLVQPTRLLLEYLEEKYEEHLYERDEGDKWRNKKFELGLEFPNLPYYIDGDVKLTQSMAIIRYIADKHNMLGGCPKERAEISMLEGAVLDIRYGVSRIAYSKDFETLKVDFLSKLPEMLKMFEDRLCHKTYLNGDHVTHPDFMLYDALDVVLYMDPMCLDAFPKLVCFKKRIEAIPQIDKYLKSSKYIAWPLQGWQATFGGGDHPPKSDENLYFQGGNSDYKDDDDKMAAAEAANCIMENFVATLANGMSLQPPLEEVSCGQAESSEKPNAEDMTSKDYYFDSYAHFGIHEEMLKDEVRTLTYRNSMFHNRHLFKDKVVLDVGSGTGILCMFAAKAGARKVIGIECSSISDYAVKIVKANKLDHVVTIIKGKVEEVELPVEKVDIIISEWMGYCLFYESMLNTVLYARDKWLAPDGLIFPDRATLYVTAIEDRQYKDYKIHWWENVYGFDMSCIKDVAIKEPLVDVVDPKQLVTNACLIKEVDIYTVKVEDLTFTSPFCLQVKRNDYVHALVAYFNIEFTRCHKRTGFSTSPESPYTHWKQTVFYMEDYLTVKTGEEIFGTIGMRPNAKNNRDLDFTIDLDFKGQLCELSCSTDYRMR

Structure (SMILES) | IC50 [1] [nM] | IC50 [2] [nM]
CNCCN(C)Cc1cn(Cc2ccccc2)nc1-c1ccc(OC(C)C)cc1 [Compound 217] | < 100 | < 100
C=CCn1cc(CN(C)CCNC)c(-c2ccc(OC(C)C)cc2)n1 [Compound 218] | < 100 | 101 to 1000
C=CCn1ncc(CN(C)CCNC)c1-c1ccc(OC(C)C)cc1 [Compound 219] | < 100 | < 100
CNCCN(C)Cc1c[nH]nc1-c1ccc(Oc2ccccc2)c(C#N)c1 [Compound 221] | < 100 | < 100
CN(CCN)Cc1c(-c2ccc(C#N)cc2)ncn1C [Compound 222] | 1010 to 3000 | 1010 to 3000
CN(CCN)Cc1c[nH]nc1-c1ccc(Oc2ccccc2)c(F)c1 [Compound 224, N^1-((3-(3-fluoro-4-phenoxyphenyl)-1H-pyrazol-4-yl)methyl)-N^1-methylethane-1,2-diamine] | < 100 | < 100
CN(CCN)Cc1c[nH]nc1-c1ccc(Oc2ccc(F)cc2)cc1 [Compound 225, N^1-((3-(4-(4-fluorophenoxy)phenyl)-1H-pyrazol-4-yl)methyl)-N^1-methylethane-1,2-diamine] | < 100 | < 100
CN(CCN)Cc1c[nH]nc1-c1ccc(Oc2ccccc2)c(C(=O)N(C)C)c1 [Compound 226] | < 100 | < 100
CNC(=O)c1cc(-c2n[nH]cc2CN(C)CCN)ccc1Oc1ccccc1 [Compound 227] | < 100 | < 100
CNCCN(C)Cc1c[nH]nc1-c1ccc(OCCCOC)c(Cl)c1 [Compound 228] | < 100 | < 100
CNCCN(C)Cc1cn(C)nc1-c1ccc(OC(C)C)cc1 [Compound 243, N1-((3-(4-isopropoxyphenyl)-1-methyl-1H-pyrazol-4-yl)methyl)-N1,N2-dimethylethane-1,2-diamine] | < 100 | 101 to 1000
CNCCN(C)Cc1cn(Cc2cccnc2)nc1-c1ccc(OC(C)C)cc1 [Compound 246] | < 100 | 101 to 1000
CNCCN(C)Cc1cn(Cc2ccccn2)nc1-c1ccc(OC(C)C)cc1 [Compound 247] | 101 to 1000 | 101 to 1000
CNCCN(C)Cc1cn(CC(=O)OC)nc1-c1ccc(OC(C)C)cc1 [Compound 248] | 101 to 1000 | 101 to 1000
CNCCN(C)Cc1cnn(CC(=O)OC)c1-c1ccc(OC(C)C)cc1 [Compound 249] | 101 to 1000 | 101 to 1000
CNCCN(C)Cc1cn(CC(=O)O)nc1-c1ccc(OC(C)C)cc1 [Compound 250] | 101 to 1000 | 3010 to 10000
CNCCN(C)Cc1cn(CC(N)=O)nc1-c1ccc(OC(C)C)cc1 [Compound 251] | 101 to 1000 | 1010 to 3000
CCn1ncc(CN(C)CCNC)c1-c1ccc(OC(C)C)cc1 [Compound 252] | < 100 | 101 to 1000
CNCCN(C)Cc1cn(CCOC)nc1-c1ccc(OC(C)C)cc1 [Compound 253, N1-((3-(4-isopropoxyphenyl)-1-(2-methoxyethyl)-1H-pyrazol-4-yl)methyl)-N1,N2-dimethylethane-1,2-diamine hydrochloride] | 101 to 1000 | 101 to 1000
CNCCN(C)Cc1cn(C2CCC2)nc1-c1ccc(OC(C)C)cc1 [Compound 254, N1-((1-cyclobutyl-3-(4-isopropoxyphenyl)-1H-pyrazol-4-yl)methyl)-N1,N2-dimethylethane-1,2-diamine hydrochloride] | < 100 | 101 to 1000
CNCCN(C)Cc1cnn(C2CCCC2)c1-c1ccc(OC(C)C)cc1 [Compound 255] | < 100 | < 100
CNCCN(C)Cc1cn(C2CCCCC2)nc1-c1ccc(OC(C)C)cc1 [Compound 256] | 101 to 1000 | 101 to 1000
C=C(C)C(=O)Nc1cccc(-c2[nH]ncc2CN(C)CCNC)c1 [Compound 257] | 101 to 1000 | 101 to 1000
C=CC(=O)Nc1cccc(-c2[nH]ncc2CN(C)CCNC)c1 [Compound 258] | < 100 | 101 to 1000
